Laboratory results published in patent publication US20170202780A1, “PHARMACEUTICAL COMPOSITION” (SENTAN Pharma Inc., priority 2014, published 2017).

What was measured:
[1] = test system: model mouse of myocardial ischemia-reperfusion; experiment: Selective drug delivery to ischemia reperfusion sites, fluorescence of heart specimens; format: in vivo; details: stereo microscope, heart specimen 24 h after reperfusion; iv at reperfusion, FITC 40 mg/kg or FITC-NP 800 mg/kg
Experimental: Mice (C57BL/6J, 8 to 10 weeks of age, male, 25 to 30 g, n=3) were intraperitoneally administered with pentobarbital sodium (60 mg/kg) or subjected to inhalation anesthesia with isoflurane. During the procedure, respiration was controlled by a mechanical ventilator (tidal volume: 0.5 ml, respiratory rate: 140 breaths/min); the mouse was kept warm using a heating pad so that the rectal temperature was maintained at 36.8° C. to 37.2° C. An incision was made horizontally at the level of the third to fourth intercostal space; and the pericardium was opened. […] ST change in electrocardiogram and a change in the color of cardiac muscles were observed and ischemia in the cardiac muscles was checked. The silicone tube was removed 30 minutes after the ligature. Reperfusion was carried out and at the same time 0.1 to 0.2 ml of solution of test substance was intravenously injected. The chest was closed using 5-0 silk suture; and then extubation was performed after spontaneous breathing was confirmed. The intravenously-injected test substance is FITC (40 mg/kg) or FITC-NP (800 mg/kg). […]
Twenty-four hours after the reperfusion, the mouse was anesthetized again and endotracheal intubation was conducted, followed by thoracotomy. […] In evaluation of the specimen, SMZ1500 (manufactured by Nikon Corporation) was employed as an optical and fluorescence microscope.

[2] = test system: model mouse of myocardial ischemia-reperfusion; experiment: Infarct size (area of infarct region/area of AAR) after myocardial ischemia-reperfusion; format: in vivo; details: iv
Experimental: Mice (C57BL/6J, 8 to 10 weeks of age, male, 25 to 30 g, n=3) were intraperitoneally administered with pentobarbital sodium (60 mg/kg) or subjected to inhalation anesthesia with isoflurane. During the procedure, respiration was controlled by a mechanical ventilator (tidal volume: 0.5 ml, respiratory rate: 140 breaths/min); the mouse was kept warm using a heating pad so that the rectal temperature was maintained at 36.8° C. to 37.2° C. An incision was made horizontally at the level of the third to fourth intercostal space; and the pericardium was opened. […] ST change in electrocardiogram and a change in the color of cardiac muscles were observed and ischemia in the cardiac muscles was checked. […]
Twenty-four hours after the reperfusion, the mouse was anesthetized again and endotracheal intubation was conducted, followed by thoracotomy. […] In evaluation of the specimen, SMZ1500 (manufactured by Nikon Corporation) was employed as an optical and fluorescence microscope. […]
Each of the sections was stained in the same manner as described above; and the areas of infarct (region shown in white) and AAR (region shown in red) were each measured and the area of the infarct region/the area of AAR was calculated. […]
Each of the sections was stained in the same manner as described above; and the areas of infarct and AAR were each measured and the area of the infarct region/the area of AAR was calculated. […]

[3] = Maximum soluble amount of bulk drug for intravenous dosing; format: physicochemical; details: expressed as dose

In the case of `O=C1OC2(c3ccc(O)cc3Oc3cc(O)ccc32)c2ccc(N=C=S)cc21` [FITC], the “fluorescence of FITC in the infarction site” value [1] is reported as “not observed”.
For `CCCCC1=NC2(CCCC2)C(=O)N1Cc1ccc(-c2ccccc2-c2nnn[nH]2)cc1` [irbesartan], the “reduction of the infarct size” value ([2]; irbesartan dosed at 3.0 mg/kg) was “drastic reduction of the infarct size was not seen” and the maximum soluble amount [3] was 3.0 mg/kg.
With `O=C(O)C[C@H](O)C[C@H](O)/C=C/c1c(C2CC2)nc2ccccc2c1-c1ccc(F)cc1` [pitavastatin] the “reduction of the infarct size” value ([2]; pitavastatin dosed at 10 mg/kg) was “drastic reduction of the infarct size was not seen” and the maximum soluble amount [3] was 10 mg/kg.
For `CSc1ccc(C(=O)N[C@H]2CCCC[C@H]2NC(=O)CNC(=O)c2cc(C(F)(F)F)ccc2NC(=O)NC(C)C)cc1` (relative stereo) [BMS CCR2 22, 2-[(Isopropylaminocarbonyl)amino]-N-[2-[[cis-2-[[4-(methylthio)benzoyl]amino]cyclohexyl]amino]-2-oxoethyl]-5-(trifluoromethyl)benzamide], the maximum soluble amount [3] was 1.0 mg/kg.
With `CCc1ccc(CCOc2ccc(CC3SC(=O)NC3=O)cc2)nc1` (stereo not shown) [pioglitazone] the maximum soluble amount [3] was 3.0 mg/kg.
